Source: patent US9572785B2, “DP2 antagonist and uses thereof” (Brickell Biotech, Inc., priority 2009, dated 2017)
Read-outs that look alike come from different tables or passages of the source.

Columns and labels:
rat DP2 = target: T1, rat DP2 (Rattus norvegicus, UniProt Q6XKD3); experiment: DP2 radioligand membrane binding assay, rat; conditions: read-out: average IC50, inhibition of radiolabeled PGD2 binding
T1 sequence (Q6XKD3 1-403): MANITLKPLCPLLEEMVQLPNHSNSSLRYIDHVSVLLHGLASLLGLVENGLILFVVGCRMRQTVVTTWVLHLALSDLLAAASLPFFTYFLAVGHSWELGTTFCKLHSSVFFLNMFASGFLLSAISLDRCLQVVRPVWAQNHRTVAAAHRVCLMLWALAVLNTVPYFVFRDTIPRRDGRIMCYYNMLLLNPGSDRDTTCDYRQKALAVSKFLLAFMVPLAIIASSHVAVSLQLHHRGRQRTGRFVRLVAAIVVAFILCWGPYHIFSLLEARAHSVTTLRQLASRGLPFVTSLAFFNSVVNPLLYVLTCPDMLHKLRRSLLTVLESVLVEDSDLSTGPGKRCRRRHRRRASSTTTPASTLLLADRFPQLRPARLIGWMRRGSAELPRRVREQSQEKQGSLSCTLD
Description: (§1) HEK293 cells stably expressing recombinant human DP2 are resuspended in 10 mM Hepes, 7.4 containing 1 mM DTT, lysed and centrifuged at 75,000×g to pellet the membranes. The membranes are resuspended in 10 mM Hepes, 7.4 containing 1 mM DTT and 10% glycerol to approximately 5 mg protein/ml. […] The reactions are terminated by rapid filtration through Whatman GF/C glass fibre filter plates. […] After harvesting, the filter plates are washed 3 times with 1 ml cold Wash Buffer then dried. Scintillant is then added to the plates and the radioactivity retained on the filters is determined on a Packard TopCount (Perkin Elmer). Specific binding is determined as total radioactive binding minus non-specific binding in the presence of 10 μM PGD2. IC50s were determined using GraphPad prism analysis of drug titration curves. Mouse, rat and guinea pig DP2 receptors were also investigated.

mouse DP2 receptor = target: T2, mouse DP2 receptor (Mus musculus, UniProt Q9Z2J6); experiment: DP2 radioligand membrane binding assay, mouse
T2 construct: expressed in transfected cells
T2 sequence (Q9Z2J6 1-382): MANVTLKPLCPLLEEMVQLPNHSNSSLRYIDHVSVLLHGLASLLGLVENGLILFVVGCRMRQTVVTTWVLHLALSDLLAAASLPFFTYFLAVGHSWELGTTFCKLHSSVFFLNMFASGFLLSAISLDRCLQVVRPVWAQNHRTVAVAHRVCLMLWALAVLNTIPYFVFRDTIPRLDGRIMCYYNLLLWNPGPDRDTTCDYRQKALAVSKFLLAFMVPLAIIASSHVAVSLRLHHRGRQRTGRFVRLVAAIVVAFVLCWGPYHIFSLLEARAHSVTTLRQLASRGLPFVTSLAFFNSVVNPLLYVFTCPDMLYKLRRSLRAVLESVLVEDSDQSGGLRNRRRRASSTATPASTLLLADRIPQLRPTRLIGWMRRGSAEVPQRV
Description: as §1

DP2 receptor = target: T3, DP2 receptor (Homo sapiens, UniProt Q9Y5Y4); experiment: Whole blood eosinophil shape change (ESC) assay, human; assay type: cell-based; set-up: endogenous in cells; host or cells: eosinophils in human whole blood
T3 sequence (Q9Y5Y4 1-395): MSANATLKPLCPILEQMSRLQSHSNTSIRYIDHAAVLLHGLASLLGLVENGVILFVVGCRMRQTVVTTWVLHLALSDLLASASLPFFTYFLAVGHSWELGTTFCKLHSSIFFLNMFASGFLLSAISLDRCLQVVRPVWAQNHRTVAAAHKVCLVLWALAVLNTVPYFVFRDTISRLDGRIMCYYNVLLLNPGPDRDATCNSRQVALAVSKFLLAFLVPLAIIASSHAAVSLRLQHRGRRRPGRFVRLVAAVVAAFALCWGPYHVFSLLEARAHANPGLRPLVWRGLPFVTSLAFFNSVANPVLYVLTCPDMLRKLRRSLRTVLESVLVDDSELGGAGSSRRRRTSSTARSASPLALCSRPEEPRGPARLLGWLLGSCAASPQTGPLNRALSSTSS
Description: Blood is drawn from consenting human volunteers in EDTA vacutainer tubes and used within 1 hr of draw. […] The blood is vortexed and incubated at 37° C. for 5 minutes. 5 μl of 1 μM PGD2 in PBS is added for a final concentration of 50 nM and the tubes briefly vortexed. The reactions are incubated for exactly 5 minutes at 37° C. and then terminated by placing the tubes on ice and immediately adding 250 μl of ice-cold 1:4 diluted Cytofix (BD Biosciences). The reactions are transferred to 12×75 mM polystyrene round bottom tubes and the red blood cells lysed by the addition of 3 ml ammonium chloride lysing solution (150 mM NH4Cl, 10 mM KHCO3, 0.1 mM EDTA disodium salt) and incubation at room temperature for 15 minutes. The cells are pelleted by spinning at 1300 rpm for 5 minutes at 4° C. and washed once with 3 ml ice-cold PBS. The cells are resuspended in 0.2 ml of ice-cold 1:4 diluted Cytofix (BD Biosciences) and analyzed on a FACSCalibur (BD Biosciences) within 2 hours. Eosinophils were gated on the basis of autofluorescence in the FL2 channel and shape change on 500 eosinophils was assayed by forward scatter and side scatter analysis. The specific change in shape induced by PGD2 was calculated as the difference between the percentage of high forward scatter eosinophils in the presence and absence of PGD2.

For `CCN(Cc1cc(C(F)(F)F)ccc1-c1cc(CC(=O)O)ccc1OC)C(=O)NCc1ccccc1` [Compound 1, [2′-(3-benzyl-1-ethyl-ureidomethyl)-6-methoxy-4′-trifluoromethyl-biphenyl-3-yl]-acetic acid], the IC50 (rat DP2) was 10.4 nM, the IC50 (mouse DP2 receptor; mouse DP2, membrane binding, read-out: average IC50, inhibition of radiolabeled PGD2 binding) was 7.8 nM and the IC50 (mouse DP2 receptor; mouse DP2 receptor, in the presence of 0.2% mouse serum albumin, read-out: IC50, radioligand membrane binding) was 20.1 nM. The AUC0-24 (human, in vivo) was 44.5 ng·h/mL, the Cmax (human, in vivo) was 15.8 ng/mL and the t1/2 (multiple dose administration 30 mg, cohort 2, Day 7) was 11.0 h. The IC90 (DP2 receptor) was 7.5 nM and the IC50 (DP2 receptor; read-out: IC50, PGD2-induced eosinophil shape change) was 2.7 nM.
